For 25 compounds, EC50 results are on record in patent US20240199608A1 (Eli Lilly and Company, priority 2022, published 2024).

In general, EC50 refers to the concentration needed to bring the measured effect to its halfway point.

This test concerns the target T1, Human AhR (Homo sapiens, UniProt P35869).
T1 construct: expressed in transfected cells
T1 sequence (P35869 11-848): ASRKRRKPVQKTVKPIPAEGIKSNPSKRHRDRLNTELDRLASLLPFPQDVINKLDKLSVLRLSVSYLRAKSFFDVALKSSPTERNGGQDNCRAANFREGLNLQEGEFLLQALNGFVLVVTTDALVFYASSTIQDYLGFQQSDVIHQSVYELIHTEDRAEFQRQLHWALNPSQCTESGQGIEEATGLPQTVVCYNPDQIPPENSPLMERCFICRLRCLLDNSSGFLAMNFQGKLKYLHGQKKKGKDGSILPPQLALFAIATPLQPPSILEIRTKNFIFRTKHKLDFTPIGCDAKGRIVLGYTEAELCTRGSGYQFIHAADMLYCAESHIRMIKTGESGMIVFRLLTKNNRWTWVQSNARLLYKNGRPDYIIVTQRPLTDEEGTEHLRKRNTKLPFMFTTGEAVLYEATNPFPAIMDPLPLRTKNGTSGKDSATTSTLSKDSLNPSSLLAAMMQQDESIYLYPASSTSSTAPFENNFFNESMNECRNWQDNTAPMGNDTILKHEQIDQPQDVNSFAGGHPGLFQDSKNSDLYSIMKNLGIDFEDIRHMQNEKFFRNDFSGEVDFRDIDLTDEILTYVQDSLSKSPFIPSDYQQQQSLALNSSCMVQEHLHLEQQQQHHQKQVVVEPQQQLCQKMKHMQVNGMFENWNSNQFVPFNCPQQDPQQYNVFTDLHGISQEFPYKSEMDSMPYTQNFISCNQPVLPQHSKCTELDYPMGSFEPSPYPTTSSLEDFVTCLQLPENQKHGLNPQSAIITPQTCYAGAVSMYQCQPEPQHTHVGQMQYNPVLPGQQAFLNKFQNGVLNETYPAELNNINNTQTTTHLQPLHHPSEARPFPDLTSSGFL
In words: hAHR Nuclear Translocation Assay. Format: cell-based. As to conditions: AhR-EGFP nuclear translocation in Jump-In T-REx HEK293 cells, 45 minutes incubation, read-out: Rel EC50. The source says: The purpose of this assay is to measure the ability of compounds to bind to, activate, and induce the translocation of AhR into the nucleus of a cell for transcription. Stable cell lines were established using Jump-InTM T-RExTM HEK293 Retargeting Kit (Life Technologies). Human AhR cDNA was cloned into the pJTI R4 CMV-TO EGFP vector. The EGFP was cloned to the C-terminal of AHR to form AhR-EGFP chimera. The pJTI R4 CMV-TO AhR-EGFP vector was transfected using FuGENE® HD into Jump-InTM T-RExTM HEK293 cells. Transfected cells were selected using 2.5 mg/ml G418 for 10 to 14 days, then expanded, harvested, and suspended in freeze media (FBS with 8% DMSO) at 2×10^7 cells/ml, and aliquots were stored in liquid nitrogen. One day before the assay date, cells were thawed and resuspended in DMEM with 5% FBS in the presence of 1 μg/ml Doxycycline and plated into ploy-L-Lysine coated […]-384 ULTRA Microplates (Perkin Elmer) at 12,000 to 15,000 cells per well and incubated at 37° C. and 5% CO2 overnight. On the assay date, compound was serially diluted (1:2) into 384-well nunc plates with DMSO using acoustic dispensing (ECHO®). The dose response was a 20-point curve. […] The culture media was damped and 25 μl of DMEM plus 0.1% BSA was added, then 25 μL of compound in DMEM plus 0.1% BSA was added into cell plates. Cells were incubated compounds at 37° C. and 5% CO2 for 45 minutes. The final DMSO concentration was 0.2%. The media was damped after 45 minutes incubation. The cells were fixed with 40 μl of cold MeOH (-20° C.) for 20 minutes. The MeOH was damped and 50 μL of DPBS containing 1 μg/mL Hochst was added into the cell plates. The intensity of EGFP was quantitated by using Opera PHENIX® or OPERETTA® high content image system (Perkin Elmer) with 20× Water Objective and five field per well. The ratio of EGFP fluorescent intensity in nuclear over cytosol was analyzed using a 4-parameter nonlinear logistic equation to determine the potency of AhR agonists.

Where two headings read alike, the source gives them in different places.

As for `CC1CCc2c1cc(C(=O)Nc1ccccn1)c1nncn21` (single isomer, unassigned) [Example 3], under “numeric values”, the EC50 came to 5.37 nM.
For `CC1CCc2c1cc(C(=O)Nc1ccccn1)c1nncn21` (single isomer, unassigned) [Example 4], the EC50 (class symbols) is > 50 nM.
As to `CC1CCc2c1cc(C(=O)Nc1ncccn1)c1nncn21` (single isomer, unassigned) [Example 7, 6-Methyl-N-(pyrimidin-2-yl)-7,8-dihydro-6H-cyclopenta[e][1,2,4] triazolo[4,3-a]pyridine-4-carboxamide], the 50% effective concentration (EC50) (numeric values) came to 11.1 nM.
Still for that read-out and setting: with `C[C@H]1CCc2c1cc(C(=O)Nc1ncccn1)c1nncn21` (single isomer, unassigned) [Example 8, 6-Methyl-N-(pyrimidin-2-yl)-7,8-dihydro-6H-cyclopenta[e][1,2,4]triazolo [4,3-a]pyridine-4-carboxamide] the figure was 25.3 nM; with `CC1CCc2c1cc(C(=O)Nc1ccccn1)c1nccn21` (single isomer, unassigned) [Example 9, 6-Methyl-N-(pyridin-2-yl)-7,8-dihydro-6H-cyclopenta[e]imidazo[1,2-a]pyridine-4-carboxamide], 3.37 nM; with `C[C@H]1CCc2c1cc(C(=O)Nc1ccccn1)c1nccn21` (single isomer, unassigned) [Example 10, 6-Methyl-N-(pyridin-2-yl)-7,8-dihydro-6H-cyclopenta[e]imidazo[1,2-a]pyridine-4-carboxamide], 1.32 nM.
Still for that read-out and setting: with `CC1CCc2c1cc(C(=O)Nc1ncccn1)c1nccn21` (single isomer, unassigned) [Example 11, 6-Methyl-N-(pyrimidin-2-yl)-7,8-dihydro-6H-cyclopenta[e]imidazo[1,2-a]pyridine-4-carboxamide] the figure was 1.58 nM.
On the same count and under the same terms, with `C[C@H]1CCc2c1cc(C(=O)Nc1ncccn1)c1nccn21` (single isomer, unassigned) [Example 12, 6-Methyl-N-(pyrimidin-2-yl)-7,8-dihydro-6H-cyclopenta[e]imidazo[1,2-a]pyridine-4-carboxamide] the figure was 9.8 nM; with `CC1CCc2c1cc(C(=O)Nc1ncc(F)cn1)c1nccn21` (single isomer, unassigned) [Example 13, N-(5-Fluoropyrimidin-2-yl)-6-methyl-7,8-dihydro-6H-cyclopenta[e]imidazo[1,2-a]pyridine-4-carboxamide], 0.495 nM.
`C[C@H]1CCc2c1cc(C(=O)Nc1ncc(F)cn1)c1nccn21` (single isomer, unassigned) [Example 14, N-(5-Fluoropyrimidin-2-yl)-6-methyl-7,8-dihydro-6H-cyclopenta[e]imidazo[1,2-a]pyridine-4-carboxamide]: under “numeric values”, the EC50 is 1.66 nM.
`COc1ccccc1NC(=O)c1cc2c(n3cnnc13)CCC2C` (single isomer, unassigned) [Example 20, N-(2-methoxyphenyl)-6-methyl-7,8-dihydro-6H-cyclopenta[e][1,2,4] triazolo[4,3-a]pyridine-4-carboxamide]: the EC50 (class symbols) was > 50 nM.
On the same count and under the same terms, with `COc1ccccc1NC(=O)c1cc2c(n3cnnc13)CCC2C` (single isomer, unassigned) [Example 21, N-(2-methoxyphenyl)-6-methyl-7,8-dihydro-6H-cyclopenta[e][1,2,4] triazolo[4,3-a]pyridine-4-carboxamide] the figure was > 50 nM.
Same read-out and setting: with `CC1CCc2c1cc(C(=O)Nc1nccs1)c1nncn21` (single isomer, unassigned) [Example 24, 6-Methyl-N-(thiazol-2-yl)-7,8-dihydro-6H-cyclopenta[e][1,2,4] triazolo[4,3-a]pyridine-4-carboxamide] the figure was 1 to 10 nM.
On the same count and under the same terms, with `CC1CCc2c1cc(C(=O)Nc1nccs1)c1nncn21` (single isomer, unassigned) [Example 25, 6-Methyl-N-(thiazol-2-yl)-7,8-dihydro-6H-cyclopenta[e][1,2,4] triazolo[4,3-a]pyridine-4-carboxamide] the figure was 1 to 10 nM; with `CC1CCc2c1cc(C(=O)Nc1ncc(C(F)(F)F)cn1)c1nncn21` (single isomer, unassigned) [Example 26, 6-Methyl-N-(5-(trifluoromethyl)pyrimidin-2-yl)-7,8-dihydro-6H-cyclopenta[e][1,2,4] triazolo[4,3-a]pyridine-4-carboxamide], 1 to 10 nM; with `CC1CCc2c1cc(C(=O)Nc1ncc(C(F)(F)F)cn1)c1nncn21` (single isomer, unassigned) [Example 27, 6-Methyl-N-(5-(trifluoromethyl)pyrimidin-2-yl)-7,8-dihydro-6H-cyclopenta[e][1,2,4] triazolo[4,3-a]pyridine-4-carboxamide], 1 to 10 nM.
Consider `Cc1cnc(NC(=O)c2cc3c(n4cnnc24)CCC3C)nc1` (single isomer, unassigned) [Example 28, 6-Methyl-N-(5-methylpyrimidin-2-yl)-7,8-dihydro-6H-cyclopenta[e][1,2,4]tria zolo[4,3-a]pyridine-4-carboxamide], for which the 50% effective concentration (EC50) (class symbols) is 10 to 50 nM.
As for `Cc1cnc(NC(=O)c2cc3c(n4cnnc24)CCC3C)nc1` (single isomer, unassigned) [Example 29, 6-Methyl-N-(5-methylpyrimidin-2-yl)-7,8-dihydro-6H-cyclopenta[e][1,2,4]tria zolo[4,3-a]pyridine-4-carboxamide], the EC50 (class symbols) is 10 to 50 nM.
Take `CC1CCc2c1cc(C(=O)Nc1ncco1)c1nncn21` (single isomer, unassigned) [Example 30, 6-Methyl-N-(oxazol-2-yl)-7,8-dihydro-6H-cyclopenta[e][1,2,4] triazolo[4,3-a]pyridine-4-carboxamide]: the EC50 (class symbols) lay within 10 to 50 nM.
Still for that read-out and setting: the figure for `CC1CCc2c1cc(C(=O)Nc1ncco1)c1nncn21` (single isomer, unassigned) [Example 31, 6-Methyl-N-(oxazol-2-yl)-7,8-dihydro-6H-cyclopenta[e][1,2,4] triazolo[4,3-a]pyridine-4-carboxamide] is 10 to 50 nM; for `CC1CCc2c1cc(C(=O)Nc1ccon1)c1nncn21` (single isomer, unassigned) [Example 32] it is 1 to 10 nM.
Turning to `CC1CCc2c1cc(C(=O)Nc1ccon1)c1nncn21` (single isomer, unassigned) [Example 33], where the note is “class symbols”, the EC50 was > 50 nM.
The same measure, in the same setting: with `CC1CCc2c1cc(C(=O)Nc1ccc(C(F)(F)F)cn1)c1nncn21` (single isomer, unassigned) [Example 34, 6-Methyl-N-(5-(trifluoromethyl)95yridine-2-yl)-7,8-dihydro-6H-cyclopenta[e][1,2,4] triazolo[4,3-a]pyridine-4-carboxamide] the figure was 1 to 10 nM; with `CC1CCc2c1cc(C(=O)Nc1ccc(C(F)(F)F)cn1)c1nncn21` (single isomer, unassigned) [Example 35, 6-Methyl-N-(5-(trifluoromethyl)pyridin-2-yl)-7,8-dihydro-6H-cyclopenta[e][1,2,4] triazolo[4,3-a]pyridine-4-carboxamide], 1 to 10 nM; with `CC1CCc2c1cc(C(=O)Nc1ncccc1F)c1nncn21` (single isomer, unassigned) [Example 36, N-(3-Fluoropyridin-2-yl)-6-methyl-7,8-dihydro-6H-cyclopenta[e][1,2,4] triazolo[4,3-a]pyridine-4-carboxamide], 1 to 10 nM.
